Experimental data reported in patent US9914730B2, “Azaquinazoline inhibitors of Atypical protein Kinase C” (Ignyta, Inc., priority 2012, dated 2018).

Target: T1, full-length human PKCι (Homo sapiens, UniProt P41743)
T1 construct: Recombinant, full-length human PKCι expressed in Sf21 insect cells is also commercially available; purchased; host or cells: Sf21 insect cells
T1 sequence (P41743 1-596): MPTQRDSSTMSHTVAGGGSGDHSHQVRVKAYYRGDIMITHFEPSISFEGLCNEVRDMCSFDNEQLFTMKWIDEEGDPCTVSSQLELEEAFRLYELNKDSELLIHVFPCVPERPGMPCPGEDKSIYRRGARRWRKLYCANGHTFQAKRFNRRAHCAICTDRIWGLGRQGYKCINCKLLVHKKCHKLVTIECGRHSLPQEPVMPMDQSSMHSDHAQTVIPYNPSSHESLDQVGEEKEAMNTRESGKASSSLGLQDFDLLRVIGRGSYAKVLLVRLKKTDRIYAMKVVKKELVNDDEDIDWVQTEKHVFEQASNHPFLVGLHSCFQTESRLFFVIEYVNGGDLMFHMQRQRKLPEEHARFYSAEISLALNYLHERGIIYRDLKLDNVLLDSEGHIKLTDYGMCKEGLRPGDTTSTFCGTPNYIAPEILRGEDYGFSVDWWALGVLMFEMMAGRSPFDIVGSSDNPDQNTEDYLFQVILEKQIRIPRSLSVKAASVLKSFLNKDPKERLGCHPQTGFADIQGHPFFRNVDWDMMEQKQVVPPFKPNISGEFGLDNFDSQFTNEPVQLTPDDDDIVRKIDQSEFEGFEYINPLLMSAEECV
Assay: PKCι IC50 IMAP assay, full-length PKCι at 150 μM ATP
Format: biochemical
Details: read-out: IC50 in IMAP assay against full length PKCi at 150 μM ATP
In short: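 IMAP fluorescence polarisation (ex 485/em 530 nm) read-out; % inhibition set from no-compound (0%) and no-enzyme (100%) controls, IC50 from dose-response curve fit. Sf21-expressed full-length enzyme ~15 pM, 100 nM FAM peptide, ATP 150 μM (5× KM^APP), 60 min at RT.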

Structure (SMILES)	IC50
c1ccc2c(c1)CC(Nc1cc(-c3nc(N4CCNCC4)c4c(C5CC5)cncc4n3)ccn1)C2 [Example 2097]	< 100 nM
c1ccc2c(c1)CC[C@H]2Nc1cc(-c2nc(N3CCNCC3)c3c(C4CC4)cncc3n2)ccn1 [Example 2098, [4-(5-Cyclopropyl-4-piperazin-1-yl-pyrido[3,4-d]pyrimidin-2-yl)-pyridin-2-yl]-(R)-indan-1-yl-amine]	< 100 nM
Fc1cccc(F)c1Nc1cc(-c2nc(N3CCNCC3)c3c(C4CC4)cnc(Cl)c3n2)ccn1 [Example 2100, [4-(8-Chloro-5-cyclopropyl-4-piperazin-1-yl-pyrido[3,4-d]pyrimidin-2-yl)-pyridin-2-yl]-(2,6-difluoro-phenyl)-amine]	< 100 nM
Fc1ncc(C2CC2)c2c(N3CCNCC3)nc(-c3ccnc4[nH]c(C(F)(F)F)cc34)nc12 [Example 2102, 5-Cyclopropyl-8-fluoro-4-piperazin-1-yl-2-(2-trifluoromethyl-1H-pyrrolo[2,3-b]pyridin-4-yl)-pyrido[3,4-d]pyrimidine]	< 100 nM
Fc1cccc(F)c1Nc1cc(-c2nc(NCC3CCN(C4CCC4)CC3)c3c(C4CC4)cncc3n2)ccn1 [Example 2103, (1-Cyclobutyl-piperidin-4-ylmethyl)-{5-cyclopropyl-2-[2-(2,6-difluoro-phenylamino)-pyridin-4-yl]-pyrido[3,4-d]pyrimidin-4-yl}-amine]	100 to 1000 nM
FC(F)c1cc2c(-c3nc(N4CCNCC4)c4c(C5CC5)cncc4n3)ccnc2[nH]1 [Example 2106, 5-Cyclopropyl-2-(2-difluoromethyl-1H-pyrrolo[2,3-b]pyridin-4-yl)-4-piperazin-1-yl-pyrido[3,4-d]pyrimidine]	< 100 nM
Fc1cccc(F)c1Nc1cc(-c2nc(NCC3CCNCC3)c3c(C4CC4)cncc3n2)ccn1 [Example 2107, {5-Cyclopropyl-2-[2-(2,6-difluoro-phenylamino)-pyridin-4-yl]-pyrido[3,4-d]pyrimidin-4-yl}-piperidin-4-ylmethyl-amine]	< 100 nM
COCC(C)(C)c1cc2c(-c3nc(N4CCNCC4)c4c(C5CCC5)cncc4n3)ccnc2[nH]1 [Example 2109, 5-Cyclobutyl-2-[2-(2-methoxy-1,1-dimethyl-ethyl)-1H-pyrrolo[2,3-b]pyridin-4-yl]-4-piperazin-1-yl-pyrido[3,4-d]pyrimidine]	< 100 nM
CN(c1nc(-c2ccnc(Nc3c(F)cccc3F)c2)nc2cncc(C3CC3)c12)C1CCN(C2CCC2)CC1 [Example 2110, (1-Cyclobutyl-piperidin-4-yl)-{5-cyclopropyl-2-[2-(2,6-difluoro-phenylamino)-pyridin-4-yl]-pyrido[3,4-d]pyrimidin-4-yl}-methyl-amine]	100 to 1000 nM
c1cc(-c2nc(N3CCNCC3)c3c(C4CC4)cncc3n2)c2cc(C3CCOCC3)[nH]c2n1 [Example 2111, 5-Cyclopropyl-4-piperazin-1-yl-2-[2-(tetrahydro-pyran-4-yl)-1H-pyrrolo[2,3-b]pyridin-4-yl]-pyrido[3,4-d]pyrimidine]	< 100 nM
CC(C)N1CCC(N(C)c2nc(-c3ccnc(Nc4c(F)cccc4F)c3)nc3cncc(C4CC4)c23)CC1 [Example 2115, {5-Cyclopropyl-2-[2-(2,6-difluoro-phenylamino)-pyridin-4-yl]-pyrido[3,4-d]pyrimidin-4-yl}-(1-isopropyl-piperidin-4-yl)-methyl-amine]	< 100 nM
c1cc(-c2nc(N3CCNCC3)c3c(C4CC4)cncc3n2)cc(Nc2ccc3nonc3c2)n1 [Example 2116, Benzo[1,2,5]oxadiazol-5-yl-[4-(5-cyclopropyl-4-piperazin-1-yl-pyrido[3,4-d]pyrimidin-2-yl)-pyridin-2-yl]-amine]	< 100 nM
FC(F)(F)c1cc2c(-c3nc(N4CCNCC4)c4c(Br)cncc4n3)ccnc2[nH]1 [Example 2117, 5-Bromo-4-piperazin-1-yl-2-(2-trifluoromethyl-1H-pyrrolo[2,3-b]pyridin-4-yl)-pyrido[3,4-d]pyrimidine]	< 100 nM
CC(C)(C)c1cc2c(-c3nc(N4CCNCC4)c4c(C5CC5)cnc(F)c4n3)ccnc2[nH]1 [Example 2119, 2-(2-tert-Butyl-1H-pyrrolo[2,3-b]pyridin-4-yl)-5-cyclopropyl-8-fluoro-4-piperazin-1-yl-pyrido[3,4-d]pyrimidine]	< 100 nM
CN(c1nc(-c2ccnc(Nc3c(F)cccc3F)c2)nc2cncc(C3CC3)c12)C1CCN(CC(F)F)CC1 [Example 2123, {5-Cyclopropyl-2-[2-(2,6-difluoro-phenylamino)-pyridin-4-yl]-pyrido[3,4-d]pyrimidin-4-yl}-[1-(2,2-difluoro-ethyl)-piperidin-4-yl]-methyl-amine]	100 to 1000 nM
c1cc(-c2nc(N3CCNCC3)c3c(C4CC4)cncc3n2)cc(Nc2ccc3c(c2)CCC3)n1 [Example 2124, [4-(5-Cyclopropyl-4-piperazin-1-yl-pyrido[3,4-d]pyrimidin-2-yl)-pyridin-2-yl]-indan-5-yl-amine]	< 100 nM
O=C(Nc1cc(-c2nc(N3CCNCC3)c3c(C4CC4)cncc3n2)ccn1)C(F)(F)c1ccccc1 [Example 2126, N-[4-(5-Cyclopropyl-4-piperazin-1-yl-pyrido[3,4-d]pyrimidin-2-yl)-pyridin-2-yl]-2,2-difluoro-2-phenyl-acetamide]	< 100 nM
FC1(c2cc3c(-c4nc(N5CCNCC5)c5c(C6CC6)cncc5n4)ccnc3[nH]2)CC1 [Example 2127, 5-Cyclopropyl-2-[2-(1-fluoro-cyclopropyl)-1H-pyrrolo[2,3-b]pyridin-4-yl]-4-piperazin-1-yl-pyrido[3,4-d]pyrimidine]	< 100 nM

Now from value to compound:

IC50	Structure (SMILES)
< 100 nM	c1ccc2c(c1)CC[C@@H]2Nc1cc(-c2nc(N3CCNCC3)c3c(C4CC4)cncc3n2)ccn1 [Example 2099, [4-(5-Cyclopropyl-4-piperazin-1-yl-pyrido[3,4-d]pyrimidin-2-yl)-pyridin-2-yl]-(S)-indan-1-yl-amine]
< 100 nM	Fc1cccc(F)c1Nc1cc(-c2nc(N3CCNCC3)c3c(C4CC4)cnc(F)c3n2)ccn1 [Example 2101, [4-(5-Cyclopropyl-8-fluoro-4-piperazin-1-yl-pyrido[3,4-d]pyrimidin-2-yl)-pyridin-2-yl]-(2,6-difluoro-phenyl)-amine]
< 100 nM	c1cc(Nc2cc(-c3nc(N4CCNCC4)c4c(C5CC5)cncc4n3)ccn2)c2nonc2c1 [Example 2104, Benzo[1,2,5]oxadiazol-4-yl-[4-(5-cyclopropyl-4-piperazin-1-yl-pyrido[3,4-d]pyrimidin-2-yl)-pyridin-2-yl]-amine]
< 100 nM	FC(F)(F)c1cc2c(-c3nc(N4CCNCC4)c4c(C5CCCC5)cncc4n3)ccnc2[nH]1 [Example 2105, 5-Cyclopentyl-4-piperazin-1-yl-2-(2-trifluoromethyl-1H-pyrrolo[2,3-b]pyridin-4-yl)-pyrido[3,4-d]pyrimidine]
< 100 nM	COCC(C)(C)c1cc2c(-c3nc(N4CCNCC4)c4c(C5CC5)cncc4n3)ccnc2[nH]1 [Example 2108, 5-Cyclopropyl-2-[2-(2-methoxy-1,1-dimethyl-ethyl)-1H-pyrrolo[2,3-b]pyridin-4-yl]-4-piperazin-1-yl-pyrido[3,4-d]pyrimidine]
< 100 nM	Cc1cc2c(-c3nc(N4CCNCC4)c4c(C5CCC5)cncc4n3)ccnc2[nH]1 [Example 2112, 5-Cyclobutyl-2-(2-methyl-1H-pyrrolo[2,3-b]pyridin-4-yl)-4-piperazin-1-yl-pyrido[3,4-d]pyrimidine]
< 100 nM	c1ccc(C2(c3cc4c(-c5nc(N6CCNCC6)c6c(C7CCC7)cncc6n5)ccnc4[nH]3)CC2)cc1 [Example 2113, 5-Cyclobutyl-2-[2-(1-phenyl-cyclopropyl)-1H-pyrrolo[2,3-b]pyridin-4-yl]-4-piperazin-1-yl-pyrido[3,4-d]pyrimidine]
< 100 nM	FC(F)c1cc2c(-c3nc(N4CCNCC4)c4c(C5CCC5)cncc4n3)ccnc2[nH]1 [Example 2114, 5-Cyclobutyl-2-(2-difluoromethyl-1H-pyrrolo[2,3-b]pyridin-4-yl)-4-piperazin-1-yl-pyrido[3,4-d]pyrimidine]
< 100 nM	CC(C)(C)c1cc2c(-c3nc(N4CCNCC4)c4c(C5CC5)cnc(Cl)c4n3)ccnc2[nH]1 [Example 2118, 2-(2-tert-Butyl-1H-pyrrolo[2,3-b]pyridin-4-yl)-8-chloro-5-cyclopropyl-4-piperazin-1-yl-pyrido[3,4-d]pyrimidine]
< 100 nM	CC(C)(C)c1cc2c(-c3nc(N4CCNCC4)c4c(Br)cncc4n3)ccnc2[nH]1 [Example 2120, 5-Bromo-2-(2-tert-butyl-1H-pyrrolo[2,3-b]pyridin-4-yl)-4-piperazin-1-yl-pyrido[3,4-d]pyrimidine]
< 100 nM	CC1(C)CN(c2nc(-c3ccnc(Nc4nc(F)c(C5CC5)cc4F)c3)nc3cncc(C4CC4)c23)CCN1 [Example 2125, (5-Cyclopropyl-3,6-difluoro-pyridin-2-yl)-{4-[5-cyclopropyl-4-(3,3-dimethyl-piperazin-1-yl)-pyrido[3,4-d]pyrimidin-2-yl]-pyridin-2-yl}-amine]
